According to article PMC4556614 (PLoS ONE, 2015):

Experiments:
[1] = biological target: T1, OCT2 (Homo sapiens, UniProt O15244); assay: in vitro; settings: human; for % Inhibition of OCT2-dependent MF uptake at 20 µM (mean ± SEM) / % Inhibition of OCT2-dependent MF uptake at 200 µM (mean ± SEM): pH 7.3; for inhibition at 3 min, 20 µM / inhibition at 3 min, 200 µM: pH 7.3, probe [14C]metformin, 1000 µM, metformin 1000 μM, net uptake HEK-OCT2 minus HEK-VC; for inhibition at 3 min, 20 µM: % Inhibition of OCT2-dependent MF uptake at 20 µM (mean ± SEM), test drug 20 µM; for inhibition at 3 min, 200 µM: % Inhibition of OCT2-dependent MF uptake at 200 µM (mean ± SEM), test drug 200 µM
[2] = biological target: T1, OCT2; assay: Inhibition of OCT2-mediated [3H]MPP+ uptake in HEK-OCT2 cells; settings: for inhibition at 3 min, 20 µM / inhibition at 3 min, 200 µM: pH 7.3, probe [3H]MPP+, 50 µM
[3] = test drug 20 µM, MPP+ 50 μM, 3 min, net uptake HEK-OCT2 minus HEK-VC
[4] = test drug 200 µM, MPP+ 50 μM, 3 min, net uptake HEK-OCT2 minus HEK-VC

T1 sequence (O15244 whole entry): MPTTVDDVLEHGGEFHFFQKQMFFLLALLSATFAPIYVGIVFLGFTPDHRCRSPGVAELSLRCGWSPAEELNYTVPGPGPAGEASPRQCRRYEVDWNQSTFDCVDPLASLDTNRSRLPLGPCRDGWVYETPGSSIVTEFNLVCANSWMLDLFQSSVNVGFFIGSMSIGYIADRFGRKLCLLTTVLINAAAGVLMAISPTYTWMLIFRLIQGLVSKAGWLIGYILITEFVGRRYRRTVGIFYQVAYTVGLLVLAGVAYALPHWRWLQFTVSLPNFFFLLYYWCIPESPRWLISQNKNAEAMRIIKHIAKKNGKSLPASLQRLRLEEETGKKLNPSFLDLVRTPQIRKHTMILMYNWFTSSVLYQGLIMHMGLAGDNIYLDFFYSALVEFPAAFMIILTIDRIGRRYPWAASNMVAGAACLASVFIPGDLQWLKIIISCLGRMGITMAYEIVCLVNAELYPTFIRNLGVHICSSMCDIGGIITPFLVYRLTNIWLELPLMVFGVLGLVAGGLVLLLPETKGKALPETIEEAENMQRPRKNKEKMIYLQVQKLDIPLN

Compound | % Inhibition of OCT2-dependent MF uptake at 20 µM (mean ± SEM) [1] | % Inhibition of OCT2-dependent MF uptake at 200 µM (mean ± SEM) [1] | % Inhibition of OCT2-dependent MPP+ uptake at 20 µM (mean ± SEM) [2, 3] [%] | % Inhibition of OCT2-dependent MPP+ uptake at 200 µM (mean ± SEM) [2, 4] [%] | inhibition at 3 min, 20 µM [1] [%] | inhibition at 3 min, 200 µM [1] [%] | inhibition at 3 min, 20 µM ([2]; human) [%] | inhibition at 3 min, 200 µM ([2]; human) [%] | % Inhibition of OCT2-dependent MPP+ uptake at 20 µM (mean ± SEM) ([2]; test drug 20 µM, MPP+ 50 μM, 3 min, net uptake HEK-OCT2 minus HEK-VC, listed as olanzapine) | % Inhibition of OCT2-dependent MPP+ uptake at 20 µM (mean ± SEM) ([2]; human, pH 7.3) | % Inhibition of OCT2-dependent MPP+ uptake at 200 µM (mean ± SEM) ([2]; human, pH 7.3)
C=C1CC[C@H](O)C/C1=C/C=C1\CCC[C@]2(C)[C@@H]([C@H](C)CCCC(C)C)CC[C@@H]12 [Cholecalciferol] | 2.8 ± 15.7 | 17.1 ± 5.0 | 6.8 ± 5.1 | 10.4 ± 6.1 |  |  |  |  |  |  | 
CN(Cc1cnc2nc(N)nc(N)c2n1)c1ccc(C(=O)N[C@@H](CCC(=O)O)C(=O)O)cc1 [Methotrexate] | -1.1 ± 11.4 | -5.8 ± 13.0 | -19.0 ± 7.2 | -9.5 ± 3.0 |  |  |  |  |  |  | 
CC(=O)Oc1ccccc1C(=O)O [ASA, acetylsalicylic acid] | -18.7 ± 11.0% | 1.3 ± 8.9% | -10.6 ± 5.7 | -1.5 ± 4.5 |  |  |  |  |  |  | 
COc1cc2nc(N3CCN(C(=O)C4COc5ccccc5O4)CC3)nc(N)c2cc1OC (centres unmarked) [Doxazosin] | 48.0 ± 5.5 | 92.1 ± 1.0 | 26.7 ± 10.3 | 45.8 ± 14.0 |  |  |  |  |  |  | 
CCC(C)(C)C(=O)O[C@H]1C[C@@H](C)C=C2C=C[C@H](C)[C@H](CC[C@@H]3C[C@@H](O)CC(=O)O3)[C@H]21 [Simvastatin lactone] | -15.4 ± 5.5 | 57.6 ± 10.0 | 48.5 ± 9.0 | 53.8 ± 13.1 |  |  |  |  |  |  | 
CC1(C)S[C@@H]2[C@H](NC(=O)[C@H](N)c3ccc(O)cc3)C(=O)N2[C@H]1C(=O)O [Amoxicillin] | 3.2 ± 6.6% | 4.5 ± 5.1% | -21.0 ± 11.1 | -13.5 ± 14.5 |  |  |  |  |  |  | 
CC[C@H](C)C(=O)O[C@H]1C[C@H](O)C=C2C=C[C@H](C)[C@H](CC[C@@H](O)C[C@@H](O)CC(=O)O)[C@H]21 [Pravastatin] | -26.3 ± 11.1 | -11.1 ± 11.1 | -30.2 ± 5.5 | -15.0 ± 5.2 |  |  |  |  |  |  | 
COc1nc(C)nc(Cl)c1N=C1NCCN1 [Moxonidine] |  |  |  |  | 58.1 ± 14.5 | 86.1 ± 2.9 | 16.3 ± 6.5 | 23.1 ± 7.1 |  |  | 
O=C(CCCN1CCC(O)(c2ccc(Cl)cc2)CC1)c1ccc(F)cc1 [Haloperidol] | 6.4 ± 8.9 | 66.9 ± 5.3 | -11.2 ± 5.0 | -10.6 ± 5.1 |  |  |  |  |  |  | 
C[C@H]1O[C@@H](O[C@H]2[C@@H](O)C[C@H](O[C@H]3[C@@H](O)C[C@H](O[C@H]4CC[C@@]5(C)[C@H](CC[C@@H]6[C@@H]5CC[C@]5(C)[C@@H](C7=CC(=O)OC7)CC[C@]65O)C4)O[C@@H]3C)O[C@@H]2C)C[C@H](O)[C@@H]1O [Digitoxin] | 28.7 ± 7.9 | 32.8 ± 2.9 | -32.6 ± 3.8 | -32.4 ± 8.5 |  |  |  |  |  |  | 
Cc1cc2c(s1)Nc1ccccc1N=C2N1CCN(C)CC1 [Olanzapine] | -7.5 ± 5.7 | 74.9 ± 1.8 | 83.5 ± 9.4 | 109.7 ± 2.8 |  |  |  |  | most potent inhibitors |  | 
O=C1CCc2ccc(OCCCCN3CCN(c4cccc(Cl)c4Cl)CC3)cc2N1 [Aripiprazole] | 53.4 ± 9.1% | 82.0 ± 6.7% | 6.7 ± 3.6 | 16.9 ± 5.2 |  |  |  |  |  |  | 
CCOc1ccccc1OCCN[C@H](C)Cc1ccc(OC)c(S(N)(=O)=O)c1 [Tamsulosin] |  | 107.0 ± 3.1 | 14.9 ± 4.8 | 65.7 ± 2.9 |  |  |  |  |  |  | 
C[C@H]1c2cccc(O)c2C(=O)C2=C(O)[C@]3(O)C(=O)C(C(N)=O)=C(O)[C@@H](N(C)C)[C@@H]3[C@@H](O)[C@@H]21 [Doxycycline] | -21.8 ± 1.9 | 1.9 ± 9.1 | -12.9 ± 13.1 | -16.6 ± 11.7 |  |  |  |  |  |  | 
N[C@@H](Cc1cc(I)c(Oc2cc(I)c(O)c(I)c2)c(I)c1)C(=O)O [Levothyroxine] |  |  |  |  | 0.8 ± 9.6 | 14.3 ± 15.2 | 3.6 ± 4.1 | -3.3 ± 10.3 |  |  | 
CC(C)OC(=O)C(C)(C)Oc1ccc(C(=O)c2ccc(Cl)cc2)cc1 [Fenofibrate] | 43.0 ± 9.9 | 73.4 ± 4.7 | 12.8 ± 5.0 | 32.0 ± 5.7 |  |  |  |  |  |  | 
CCOC(=O)C1=C(COCCN)NC(C)=C(C(=O)OC)C1c1ccccc1Cl (centres unmarked) [Amlodipine] | 21.9 ± 9.0% | 110.0 ± 17.3% | -13.8 ± 7.4 | 39.3 ± 6.8 |  |  |  |  |  |  | 
O=C(O)Cc1ccccc1Nc1c(Cl)cccc1Cl [Diclofenac] | 14.3 ± 8.8 | 59.1 ± 6.5 | 8.8 ± 8.9 | 24.0 ± 4.0 |  |  |  |  |  |  | 
CN(C)CCC[C@@]1(c2ccc(F)cc2)OCc2cc(C#N)ccc21 [Escitalopram] | 62.6 ± 9.2 | 93.8 ± 3.6 | -26.3 ± 7.9 | 26.0 ± 10.1 |  |  |  |  |  |  | 
CCCc1nc(C(C)(C)O)c(C(=O)O)n1Cc1ccc(-c2ccccc2-c2nnn[nH]2)cc1 [Olmesartan] |  |  |  |  | -0.1 ± 10.9 | 21.1 ± 7.3 | -23.8 ± 7.1 | -21.9 ± 13.3 |  |  | 
Cn1c(=O)c2[nH]cnc2n(C)c1=O [Theophylline] | -21.5 ± 13.0 | -36.6 ± 10.9 | -12.9 ± 5.7 | -16.7 ± 6.8 |  |  |  |  |  |  | 
CCN(CC)CCNC(=O)c1cc(Cl)c(N)cc1OC [Metoclopramide] | 74.7 ± 8.5 | 93.9 ± 0.6 | 24.5 ± 2.9 | 66.6 ± 8.4 |  |  |  |  |  |  | 
C#C[C@]1(O)CC[C@H]2[C@@H]3CCc4cc(O)ccc4[C@H]3CC[C@@]21C [Ethinylestradiol] | 31.8 ± 8.1 | 62.2 ± 13.1 | 14.0 ± 8.8 | 46.8 ± 6.3 |  |  |  |  |  |  | 
CCOC(=O)C1=C(C)NC(C)=C(C(=O)OC)C1c1cccc([N+](=O)[O-])c1 (centres unmarked) [Nitrendipine] | 0.4 ± 9.8 | 53.2 ± 3.7 | 4.0 ± 6.3 | -2.4 ± 5.0 |  |  |  |  |  |  | 
CCN(C)C(=O)Oc1cccc([C@H](C)N(C)C)c1 [Rivastigmine] | 51.8 ± 4.0 | 91.4 ± 1.5 | 25.1 ± 9.1 | 59.4 ± 4.6 |  |  |  |  |  |  | 
COC(=O)[C@H](c1ccccc1Cl)N1CCc2sccc2C1 [Clopidogrel] | 70.0 ± 2.0 | 92.8 ± 5.4 |  |  |  |  |  |  |  | 12.5 ± 0.8 | 41.5 ± 4.0
NCC1(CC(=O)O)CCCCC1 [Gabapentin] | 9.1 ± 8.2 | 37.6 ± 4.2 |  |  |  |  |  |  |  | -8.4 ± 9.6 | -12.5 ± 9.4
CC(CN1c2ccccc2Sc2ccccc21)N(C)C (centres unmarked) [Promethazine] | 83.7 ± 3.3 | 100.7 ± 1.3 | 5.7 ± 3.8 | 76.0 ± 3.0 |  |  |  |  |  |  | 
CCCCc1nc(Cl)c(CO)n1Cc1ccc(-c2ccccc2-c2nn[nH]n2)cc1 [Losartan] | -9.3 ± 10.4 | 7.4 ± 8.2 | -41.8 ± 8.1 | -59.5 ± 6.1 |  |  |  |  |  |  | 
